The subject of experiment [1] is Mycosphaerella graminicola (Septoria tritici—SEPTTR). As to the kind of experiment: In vitro fungal growth inhibition, Mycosphaerella graminicola (SEPTTR). In kind it is cell-based. The conditions noted are these: Zymoseptoria tritici, read-out: SEPTTR in vitro Growth Inhibition.
Experiment [2] deals with Phytophthora infestans—PHYTIN. As to the kind of experiment: whole plant or invertebrate. Particulars: for pest or weed control at 100 ppm: Phytophthora, in Solanum lycopersicum, 24 h, read-out: PHYTIN in vivo 1 Day Protectant. In kind it is in vivo.
The subject of the next experiment is Ustilago maydis (USTIMA). Put plainly: microbe, parasite or virus in culture. Particulars: Mycosarcoma maydis, read-out: USTIMA in vitro Growth Inhibition. In kind it is cell-based.
Experiment [3] relates to Magnaporthe grisea (Pyricularia oryzae—PYRIOR). Put plainly: microbe, parasite or virus in culture. The conditions noted are these: Pyricularia oryzae, read-out: PYRIOR in vitro Growth Inhibition. In kind it is cell-based.
Experiment [4] deals with Rhizoctonia solani (RHIZSO). Put plainly: microbe, parasite or virus in culture. The experiment is classed as cell-based. The conditions noted are these: Rhizoctonia solani, read-out: RHIZSO in vitro Growth Inhibition.
The test system of experiment [5] is Leptosphaeria nodorum—LEPTNO. As to the kind of experiment: Glume Blotch of Wheat, in vivo whole plant, 24 Hour Protectant. Particulars: for pest or weed control at 100 ppm: Leptosphaeria, read-out: LEPTNO in vivo 1 Day Protectant.
Experiment [6] has as its system Stagonospora nodorum (Leptosphaeria nodorum—LEPTNO). Put plainly: In vitro fungal growth inhibition, Stagonospora nodorum (LEPTNO). In kind it is cell-based. Particulars: Leptosphaeria, read-out: LEPTNO in vitro Growth Inhibition.
For a further experiment, the system named is Erysiphe graminis—ERYSGT. Put plainly: Powdery Mildew of Wheat, in vivo whole plant, 24 Hour Protectant. Particulars: Erysiphe, read-out: ERYSGT in vivo 1 Day Protectant.
The next experiment has as its system Septoria tritici—SEPTTR. As to the kind of experiment: Leaf Blotch of Wheat, in vivo whole plant, 24 Hour Protectant. Particulars: for pest or weed control at 100 ppm: Zymoseptoria tritici, 24 h, read-out: SEPTTR in vivo 1 Day Protectant.
The subject of experiment [7] is Phytophthora infestans (PHYTIN). As to the kind of experiment: microbe, parasite or virus in culture. In kind it is cell-based. Particulars: Phytophthora infestans, read-out: PHYTIN in vitro Growth Inhibition.
The test system of experiment [8] is Puccinia recondita—PUCCRT. As to the kind of experiment: Brown Rust of Wheat, in vivo whole plant, 24 Hour Protectant. Particulars: for pest or weed control at 100 ppm: Puccinia, read-out: PUCCRT in vivo 1 Day Protectant.
The mark [9] stands for this setting: wheat plants sprayed at 100 ppm, inoculated after 24 hours, control of fungal infection vs untreated plants.
[10] abbreviates: 100 ppm spray, wheat, 24 hour protectant, % control of fungal infection vs untreated plants.
Setting [11] is: 100 ppm spray, 24 hour protectant, wheat, control of fungal infection vs untreated plants.

Read-outs that look alike come from different tables or passages of the source.

Usually inhibition stands for the relative decrease from the control value, in per cent.

On to `CC(C)C(=O)O[C@H]1[C@H](C)OC(=O)[C@@H](NC(=O)c2nsnc2O)COC(=O)[C@@H]1Cc1ccccc1` [Compound 553], for which the inhibition at 25 ppm (in experiment [1] (25 ppm in the growth medium); with Ustilago maydis (USTIMA); in experiment [3]; in experiment [4]; in experiment [6] (25 ppm in the growth medium); in experiment [7]) was greater than 80% in each case. In addition, the “PHYTIN in vivo 1 Day Protectant” value in experiment [2] (tomato plants sprayed at 100 ppm, inoculated after 24 hours, control of fungal infection vs untreated plants) is listed as “+ +”. The “LEPTNO in vivo 1 Day Protectant” value in [5] (setting [9]) was “+ +”. Further, the pest or weed control at 100 ppm (in the experiment with Erysiphe graminis—ERYSGT (setting [9]); in the experiment on Septoria tritici—SEPTTR (setting [9]); in experiment [8] (setting [9])) was 25 to 74% throughout.
Take `COc1ccnc(C(=O)N[C@H]2COC(=O)[C@H](Cc3ccccc3)[C@@H](OC(=O)C(C)C)[C@H](C)OC2=O)c1OC(=O)OCCBr` [Compound 692]: the inhibition at 25 ppm was greater than 80% in [1] (25 ppm in growth medium); less than 80% in the experiment on Ustilago maydis (USTIMA); greater than 80% in experiment [3]; less than 80% in experiment [4]; greater than 80% in experiment [6] (25 ppm in growth medium); less than 80% in experiment [7]. The pest or weed control at 100 ppm (in experiment [2]; with Erysiphe graminis—ERYSGT (setting [10])) was less than 25% in each case. Also, the “LEPTNO in vivo 1 Day Protectant” value in [5] (setting [10]) was “+ +”. Besides, the “SEPTTR in vivo 1 Day Protectant” value in the experiment on Septoria tritici—SEPTTR (setting [10]) is recorded as “+ +”. The “PUCCRT in vivo 1 Day Protectant” value in experiment [8] (setting [10]) was “+ +”.
Turning to `O=C(Nc1cccc(Oc2ccccc2C(F)(F)F)c1)c1nc(Br)ccc1O` [Compound 494], the inhibition at 25 ppm (in experiment [1] (25 ppm in the growth medium); in the experiment on Ustilago maydis (USTIMA); in [3]; in experiment [4]; in experiment [6] (25 ppm in the growth medium); in [7]) was less than 80% in each case. Moreover, the pest or weed control at 100 ppm in experiment [2] is less than 25%; in experiment [5] (setting [9]), less than 25%; with Erysiphe graminis—ERYSGT (setting [9]) it was less than 25%; with Septoria tritici—SEPTTR (setting [9]), 25 to 74%; in [8] (setting [9]), less than 25%.
For the compound `CC(=O)Oc1cccnc1C(=O)N[C@H]1COC(=O)[C@H](Cc2ccccc2)[C@@H](OC(=O)C(C)C)[C@H](C)OC1=O` [Compound 568], the inhibition at 25 ppm in [1] (25 ppm in the growth medium) is greater than 80%; in the experiment on Ustilago maydis (USTIMA), less than 80%; in [3], less than 80%; in experiment [4], less than 80%; in [6] (25 ppm in the growth medium) it was greater than 80%; in experiment [7], less than 80%. The pest or weed control at 100 ppm (in experiment [2]; in the experiment on Erysiphe graminis—ERYSGT (setting [9])) was less than 25% in each case. In addition, the “LEPTNO in vivo 1 Day Protectant” value in experiment [5] (setting [9]) is reported as “+ +”. Moreover, the “SEPTTR in vivo 1 Day Protectant” value in the experiment with Septoria tritici—SEPTTR (setting [9]) is given as “+ +”. Moreover, in [8] (setting [9]), the “PUCCRT in vivo 1 Day Protectant” value is “+ +”.
For `COc1ccnc(C(=O)NC2CC(C)(C)C(Cl)C(Cl)[C@H](C)[C@H]2C)c1O` (stereo partly shown) [Compound 281], the inhibition at 25 ppm was less than 80% in experiment [1] (25 ppm in growth medium); less than 80% in the experiment on Ustilago maydis (USTIMA); greater than 80% in experiment [3]; less than 80% in experiment [4]; less than 80% in [6] (25 ppm in growth medium); greater than 80% in experiment [7]. Also, the pest or weed control at 100 ppm (in experiment [2]; in experiment [5] (setting [11]); in the experiment with Erysiphe graminis—ERYSGT (setting [11]); in the experiment with Septoria tritici—SEPTTR (setting [11]); in experiment [8] (setting [11])) was 25 to 74% throughout.

For the origin of these results see patent US6706740B2, “Fungicidal heterocyclic aromatic amides and their compositions, methods of use and preparation” (Dow AgroSciences LLC, priority 1999, dated 2004).
